Measured values from US10253069B2, “Compositions and methods for regulating arterial tone” (University of Virginia Patent Foundation, priority 2012, dated 2019).

Experiments:
[1] = test system: VCCC (human coronary ECs and SMCs); experiment: Nitric oxide diffusion assay, VCCC; format: cell-based
Protocol: (§1) Anaerobic aqueous NO was generated by bubbling 100% helium into a beaker containing deionized water. Following 30 minutes, 99.5% NO′ gas was bubbled for an additional 40 minutes giving a final saturated concentration of approximately 1.7 mM.
(§2) Both ECs and SMCs were cultured on 12 mm Transwells as described above. After three days of co-culture, media was removed and replaced with 500 μL of Krebs buffer on each side of the Transwells and cells were allowed to equilibrate for 15 minutes. Next, 100 μL of anaerobic aqueous NO was added to the 500 μLs of Kreb's buffer on the EC side of the Transwell. After 5 minutes, 100 μL of Krebs buffer was immediately removed and injected into a Seivers Nitric Oxide Analyzer (NOA). Data was quantified using Origin Pro 6.0 by calculating the area under the peak over time. Differences between samples were expressed as μM change. For experiments on ex vivo samples, TD arteries were cannulated (as described above) in puddle of 100 μL of Krebs buffer created by parafilm. […] Data was quantified using Origin Pro 6.0 by calculating the area under the peak over time. Differences between samples were expressed as μM change.

TD arteries = experiment: Nitric oxide diffusion assay, ex vivo TD arteries; design: species or system mouse; settings: isolated TD arteries
Protocol: as §1, §2

[2] = test system: thoracodorsal (TD) arteries; experiment: Vasoreactivity of cannulated, pressurized TD arteries (pressure myograph) after siRNA transfection or PTU/L-NAME treatment; design: species or system mouse; settings: for Contraction to 5-HT 50 nM post 15 min, % initial diameter: 15 minutes after stimulation, PTU 50 μM, n = 3; for PE CCRC Emax (% initial diameter): phenylephrine, TD arteries pretreated with PTU (50 μM) and/or L-NAME (100 μM)
Protocol: TD arteries (maximal internal diameter 261.7±4.2 μm) were isolated, cannulated in a pressure myograph (Danish MyoTechnology) and secured with 10.0 nylon sutures as described in^7. The TD arteries were placed in a circulating bath of Krebs-HEPES and perfused with Krebs-HEPES supplemented with 1% BSA. Arteries were maintained in a no flow state and pressurized at 80 mmHg as previously described^1. […] Acetylcholine (1 μM) was added to the bath to verify the integrity of the endothelium. […] At the end of the experiments, the solution was replaced by a calcium-free Krebs supplemented with 2 mM ethylenbis-(oxyethylenenitrolo) tetra-acetic acid (EGTA) and 10 μM sodium nitroprussiate in order to measure the maximal diameter. […] Internal diameters were calculated and results are expressed as a percentage of initial inner diameter (for PE dose responses) or percent dilation (for Ach dose responses). […] The TD arteries were isolated and cannulated as described above. The vessel lumen was perfused with Krebs-HEPES buffer supplemented with 1% BSA to flush out red blood cells and 100 μL of Nucleofector transfection reagent (HCAEC Nucleofector kit, Lonza) containing 10 nM control, Hb α or CytB5R3 siRNAs (see Table below) was perfused into the lumen. Arteries were then removed from the cannula and the ends ligated with 10-0 nylon sutures to maintain the transfection reagent and siRNA in the blood vessel lumen. Ligated arteries were then transferred to a transfection cuvette (Lonza) containing 100 μL Nucleofector transfection reagent and electroporated using the Nucleofector II Device (Lonza) using setting A-034. Transfected TDA were removed from cuvettes, re-cannulated and perfused with RPMI media+1% BSA to remove residual transfection reagent and siRNA. Arteries were cultured for 15-18 hours at 37° C. in RPMI+1% BSA and used for vasoreactivity studies or processed for immunofluorescence microscopy. To eliminate variability of transfection efficiency and vessel viability, one control siRNA vessel and one Hb α/CytBSR3 vessel were transfected daily.

[3] = test system: human coronary endothelial cells; experiment: Nitrite measurements from media of coronary endothelial cells; format: cell-based; settings: unstimulated cells
Protocol: (§3) Primary coronary endothelial cells (Lonza) were cultured on plastic 6-well dishes as previously described^9. For studies involving basal NO release, endothelial cells were incubated with 5 μmol/L of Scr X or Hb α X for 20 minutes followed by medium collection and nitrite measurements as described below. For bradykinin studies, coronary endothelial cells were grown to confluence followed by serum starvation overnight in a cocktail of Lonza EGM-2 medium supplemented with EGM-2 bullet kit and Opti MEM reduced growth medium using a ratio of 1:9 respectively. The next day, endothelial cells were incubated with Scr X or Hb α X peptide for 20 minutes followed by the addition of 10 μM bradykinin (Sigma) for 5 minutes followed by medium collection for nitrite measurements as described below.
Quantitation of nitrite in culture medium was measured by chemiluminescence using a Sievers nitric oxide analyzer according to manufacturer's instructions. Quantitation of peaks was analyzed using Origin Pro 6.0 as previously described^9.

thoracodorsal arteries = experiment: Pressure myography on thoracodorsal arteries, phenylephrine dose response with peptides; design: species or system mouse
[4] = test system: eNOS phosphorylation on serine 1177; experiment: Western blot of pS1177 eNOS in coronary endothelial cells; format: cell-based, human; settings: 5 μmol/L peptide, 20 minutes
Protocol: as §3
Endothelial cells were harvested in lysis buffer, sonicated and subjected to electrophoresis using 10% Bis-Tris gels (Invitrogen) as previously described^13. Proteins were transferred to nitrocellulose, incubated with phospho-eNOS S1177 (BD Biosciences) or total eNOS (Sigma) and visualized and quantitated using Li-Cor Odyssey Imager as previously described^14.

Compound	NO diffusion in the VCCC [1]	NO diffusion across the vessel wall (TD arteries)	Contraction to 5-HT 50 nM post 15 min, % initial diameter ([2]; TD arteries)	PE CCRC Emax (% initial diameter) [2]	further results
CCCc1cc(=O)[nH]c(=S)[nH]1 [PTU, propylthiouracil]	increased NO diffusion	increased NO diffusion	64.1 ± 4.5 n.s. % initial diameter	91.4 ± 2.5 % initial diameter	Reversibility of the PTU effect with L-thyroxine supplementation ([2]; L-thyroxin 50 μM + PTU, 10 μM PE stimulation): not reversible; Basal tone ([2]; TD arteries): No difference in basal tone; Ach CCRC Emax (% Dilation) ([2]; acetylcholine, TD arteries pretreated with PTU): 94.9 ± 1.7 % Dilation; PE and Ach responses with the addition of L-NAME ([2]; plus NOS inhibitor L-NAME, TD arteries): comparable to control conditions
COC(=O)[C@@H](N)CCCNC(=N)N[N+](=O)[O-] [L-NAME, L-N^G-nitroarginine methyl ester]			57.0 ± 3.29 n.s. % initial diameter	62.6 ± 6.1 % initial diameter	
[C-]#[O+] [carbon monoxide]	increase in NO diffusion	increased NO diffusion			
Scrambled control peptide FPYFSTKLTT (SEQ ID NO:40) with HIV-tat tag YGRKKRRQRRR at the N-terminus [Scr X]					Accumulation of nitrite in the culture medium, basal [3]: no differences; Constriction in phenylephrine dose response curves (thoracodorsal arteries; compared to untreated arteries): no difference from control; Emax, vascular reactivity dose response curves (thoracodorsal arteries; phenylephrine dose response, thoracodorsal arteries perfused with peptide): 38.3 ± 2.4 % initial diameter; Basal eNOS phosphorylation on serine 1177 [4]: no differences
